Data: patent publication US7074789B2, “Kinase inhibitors” (Amgen Inc., priority 1999, dated 2006)
pIC50: −log10 of the molar value. Where “and” joins values, the source holds several entries; their conditions need not be identical. Equal entries are not always repeated. Where two headings read alike, the source gives them in different places.

Experiments:
Type in all cases: biochemical
Zap-70 = molecular target: T1, Zap-70 (Homo sapiens, UniProt P43403); assay: Kinase inhibition assay (33P transfer), Zap-70; details: read-out: Zap-1
T1 construct: Kinases are expressed as either kinase domains or full length constructs; made in house
T1 sequence (P43403 1-619): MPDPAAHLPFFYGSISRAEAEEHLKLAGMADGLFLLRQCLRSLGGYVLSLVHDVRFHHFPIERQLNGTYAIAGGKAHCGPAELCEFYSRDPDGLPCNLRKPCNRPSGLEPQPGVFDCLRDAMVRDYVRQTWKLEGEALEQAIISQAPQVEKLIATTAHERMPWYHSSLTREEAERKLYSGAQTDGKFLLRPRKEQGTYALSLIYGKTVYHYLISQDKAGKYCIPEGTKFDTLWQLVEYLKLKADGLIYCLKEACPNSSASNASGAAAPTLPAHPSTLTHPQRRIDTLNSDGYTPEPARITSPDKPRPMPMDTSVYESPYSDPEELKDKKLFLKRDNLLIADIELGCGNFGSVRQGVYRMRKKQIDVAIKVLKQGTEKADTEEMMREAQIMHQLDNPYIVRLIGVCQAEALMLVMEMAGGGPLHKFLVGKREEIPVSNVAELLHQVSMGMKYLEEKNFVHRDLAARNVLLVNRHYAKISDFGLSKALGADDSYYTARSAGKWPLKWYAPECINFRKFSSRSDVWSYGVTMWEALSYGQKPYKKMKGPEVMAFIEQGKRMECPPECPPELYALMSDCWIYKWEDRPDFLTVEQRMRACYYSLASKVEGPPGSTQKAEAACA
Summary of the method: (§1)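 Recombinant kinase-domain or full-length fusion proteins (GST or His tag) served as enzyme. Substrate poly(Glu,Tyr) 4:1 or poly(Arg,Ser) 3:1 was bound to the plate; transferred 33P was read by liquid scintillation following acid washing.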

ErbB4 = molecular target: T2, ErbB4 (Homo sapiens, UniProt Q15303); assay: Kinase inhibition assay (33P transfer), ErbB4; details: read-out: ErbB4-1
T2 construct: Kinases are expressed as either kinase domains or full length constructs; made in house

IGFR-1 [1] = molecular target: T3, IGFR-1 (Homo sapiens, UniProt P08069); assay: Kinase inhibition assay, IGFR-1 (Table 2); details: Table 2, kinase inhibition class
T3 construct: Kinases are expressed as either kinase domains or full length constructs; made in house

Lyn = molecular target: T4, Lyn (Homo sapiens, UniProt P07948); assay: Kinase inhibition assay (33P transfer), Lyn; details: Table 6, Lyn-1 kinase inhibition class
T4 construct: Kinases are expressed as either kinase domains or full length constructs; made in house
Summary of the method: (§2)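 Recombinant kinase domains or full-length GST- or His-tagged constructs, from E. coli or baculovirus/High Five cells, sometimes with regulatory polypeptides. Transfer of 33P from ATP to plate-bound poly(Glu,Tyr) 4:1 or poly(Arg,Ser) 3:1 counted by liquid scintillation after phosphoric acid wash; IC50 is the concentration halving incorporation.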

FGFR1 = molecular target: T5, FGFR1 (Homo sapiens, UniProt P11362); assay: Kinase inhibition assay (33P transfer), FGFR1; details: read-out: FGFR1-1
T5 construct: Kinases are expressed as either kinase domains or full length constructs; made in house

Ret-1 = molecular target: T6, Ret-1 (Homo sapiens, UniProt P07949); assay: Kinase inhibition assay (33P transfer), Ret; details: Table 6, Ret-1 kinase inhibition class
T6 construct: Kinases are expressed as either kinase domains or full length constructs; made in house

AKT = molecular target: T7, AKT (Homo sapiens, UniProt Q9Y243); assay: Kinase inhibition assay (33P transfer), AKT; details: read-out: AKT3-1
T7 construct: Kinases are expressed as either kinase domains or full length constructs; made in house
T7 sequence (Q9Y243 whole entry, the tested form may be a part): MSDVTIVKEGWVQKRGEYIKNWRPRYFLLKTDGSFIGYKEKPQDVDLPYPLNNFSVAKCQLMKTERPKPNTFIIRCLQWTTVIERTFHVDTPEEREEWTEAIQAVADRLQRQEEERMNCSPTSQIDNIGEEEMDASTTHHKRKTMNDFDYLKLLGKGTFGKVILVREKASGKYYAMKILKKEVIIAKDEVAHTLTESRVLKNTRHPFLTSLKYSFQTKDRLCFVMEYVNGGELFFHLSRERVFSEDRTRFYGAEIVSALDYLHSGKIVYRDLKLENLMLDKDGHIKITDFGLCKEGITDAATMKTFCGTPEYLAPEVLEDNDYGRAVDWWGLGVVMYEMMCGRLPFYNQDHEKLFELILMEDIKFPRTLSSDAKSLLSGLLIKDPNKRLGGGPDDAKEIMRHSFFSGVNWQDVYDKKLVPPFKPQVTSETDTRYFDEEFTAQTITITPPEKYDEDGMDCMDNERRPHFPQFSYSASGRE
Summary of the method: as §1

c-Met = molecular target: T8, c-Met (Homo sapiens, UniProt P08581); assay: Kinase inhibition assay (33P transfer), c-Met; details: read-out: Met-1
T8 construct: Kinases are expressed as either kinase domains or full length constructs; made in house
T8 sequence (P08581 25-1390): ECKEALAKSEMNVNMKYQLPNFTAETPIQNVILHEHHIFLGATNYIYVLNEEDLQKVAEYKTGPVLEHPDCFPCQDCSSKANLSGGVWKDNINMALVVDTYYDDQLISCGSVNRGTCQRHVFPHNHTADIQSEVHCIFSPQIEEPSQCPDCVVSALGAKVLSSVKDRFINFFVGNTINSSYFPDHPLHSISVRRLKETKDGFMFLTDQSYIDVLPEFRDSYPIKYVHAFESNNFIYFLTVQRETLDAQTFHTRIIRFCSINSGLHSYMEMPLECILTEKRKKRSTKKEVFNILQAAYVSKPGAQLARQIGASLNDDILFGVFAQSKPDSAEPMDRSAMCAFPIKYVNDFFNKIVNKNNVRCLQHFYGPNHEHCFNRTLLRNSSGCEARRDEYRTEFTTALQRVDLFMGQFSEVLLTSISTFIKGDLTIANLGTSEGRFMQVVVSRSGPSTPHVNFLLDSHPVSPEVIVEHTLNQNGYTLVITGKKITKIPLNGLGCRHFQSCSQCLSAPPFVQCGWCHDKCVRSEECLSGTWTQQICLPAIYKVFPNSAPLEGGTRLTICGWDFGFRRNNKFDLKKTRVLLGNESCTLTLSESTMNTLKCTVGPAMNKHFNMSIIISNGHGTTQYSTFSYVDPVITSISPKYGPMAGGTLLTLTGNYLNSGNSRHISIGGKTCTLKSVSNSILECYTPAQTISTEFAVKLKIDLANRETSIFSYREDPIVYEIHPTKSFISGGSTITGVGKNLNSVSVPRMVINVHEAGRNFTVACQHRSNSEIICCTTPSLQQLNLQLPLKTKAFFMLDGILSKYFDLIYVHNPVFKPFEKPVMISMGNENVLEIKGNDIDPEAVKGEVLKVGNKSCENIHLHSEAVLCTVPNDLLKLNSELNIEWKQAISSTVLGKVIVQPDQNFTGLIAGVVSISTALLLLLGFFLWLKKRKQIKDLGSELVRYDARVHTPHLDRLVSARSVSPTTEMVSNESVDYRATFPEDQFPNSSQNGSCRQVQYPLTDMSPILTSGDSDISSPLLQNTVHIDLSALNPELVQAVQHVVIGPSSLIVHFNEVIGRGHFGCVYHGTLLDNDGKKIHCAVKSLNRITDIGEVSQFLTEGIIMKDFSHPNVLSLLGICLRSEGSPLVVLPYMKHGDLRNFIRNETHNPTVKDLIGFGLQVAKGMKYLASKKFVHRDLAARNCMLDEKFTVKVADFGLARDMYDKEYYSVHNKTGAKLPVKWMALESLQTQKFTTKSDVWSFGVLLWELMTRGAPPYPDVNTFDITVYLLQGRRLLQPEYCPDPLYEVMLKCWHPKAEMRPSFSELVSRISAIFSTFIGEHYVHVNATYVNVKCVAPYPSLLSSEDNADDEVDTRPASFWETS
Summary of the method: as §2

Src = molecular target: T9, Src (Homo sapiens, UniProt P12931); assay: Kinase inhibition assay (33P transfer), Src; details: Table 6, Src-1 kinase inhibition class
T9 construct: Kinases are expressed as either kinase domains or full length constructs; made in house
Summary of the method: as §2

ErbB2 = molecular target: T10, ErbB2 (Homo sapiens, UniProt P04626); assay: Kinase inhibition assay (33P transfer), ErbB2; details: read-out: ErbB2-2
T10 construct: Kinases are expressed as either kinase domains or full length constructs; made in house
Summary of the method: as §2

Fyn = molecular target: T11, Fyn (Homo sapiens, UniProt P06241); assay: Kinase inhibition assay (33P transfer), Fyn; details: read-out: Fyn-1
T11 construct: Kinases are expressed as either kinase domains or full length constructs; made in house
Summary of the method: as §2

Flt-1 = molecular target: T12, Flt-1 (Homo sapiens, UniProt P17948); assay: Kinase inhibition assay (33P transfer), Flt-1
T12 construct: Kinases are expressed as either kinase domains or full length constructs; made in house
Summary of the method: as §2

Itk = molecular target: T13, Itk (Homo sapiens, UniProt Q08881); assay: Kinase inhibition assay (33P transfer), Itk; details: read-out: Itk-1
T13 construct: Kinases are expressed as either kinase domains or full length constructs; made in house
T13 sequence (Q08881 1-620): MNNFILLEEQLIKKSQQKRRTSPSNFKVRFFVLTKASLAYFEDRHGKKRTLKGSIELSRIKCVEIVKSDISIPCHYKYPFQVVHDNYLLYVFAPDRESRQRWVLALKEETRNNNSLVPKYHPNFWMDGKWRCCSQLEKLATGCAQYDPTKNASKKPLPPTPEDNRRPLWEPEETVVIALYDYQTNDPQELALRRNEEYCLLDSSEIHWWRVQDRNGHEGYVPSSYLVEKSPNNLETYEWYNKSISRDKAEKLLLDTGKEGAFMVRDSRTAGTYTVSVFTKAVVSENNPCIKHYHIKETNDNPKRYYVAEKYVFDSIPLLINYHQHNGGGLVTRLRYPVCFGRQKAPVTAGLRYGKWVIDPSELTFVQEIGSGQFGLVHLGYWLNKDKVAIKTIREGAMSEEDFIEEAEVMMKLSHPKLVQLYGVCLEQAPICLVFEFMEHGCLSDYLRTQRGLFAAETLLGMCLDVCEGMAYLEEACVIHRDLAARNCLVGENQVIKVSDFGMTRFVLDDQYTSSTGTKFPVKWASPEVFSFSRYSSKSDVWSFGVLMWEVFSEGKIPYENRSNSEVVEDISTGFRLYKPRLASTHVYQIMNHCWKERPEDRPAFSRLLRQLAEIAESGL
Summary of the method: as §2

Lck = molecular target: T14, Lck (Homo sapiens, UniProt P06239); assay: Kinase inhibition assay (33P transfer), Lck; details: read-out: Lck-1
T14 construct: Kinases are expressed as either kinase domains or full length constructs; made in house
T14 sequence (P06239 whole entry, species assumed, the tested form may be a part): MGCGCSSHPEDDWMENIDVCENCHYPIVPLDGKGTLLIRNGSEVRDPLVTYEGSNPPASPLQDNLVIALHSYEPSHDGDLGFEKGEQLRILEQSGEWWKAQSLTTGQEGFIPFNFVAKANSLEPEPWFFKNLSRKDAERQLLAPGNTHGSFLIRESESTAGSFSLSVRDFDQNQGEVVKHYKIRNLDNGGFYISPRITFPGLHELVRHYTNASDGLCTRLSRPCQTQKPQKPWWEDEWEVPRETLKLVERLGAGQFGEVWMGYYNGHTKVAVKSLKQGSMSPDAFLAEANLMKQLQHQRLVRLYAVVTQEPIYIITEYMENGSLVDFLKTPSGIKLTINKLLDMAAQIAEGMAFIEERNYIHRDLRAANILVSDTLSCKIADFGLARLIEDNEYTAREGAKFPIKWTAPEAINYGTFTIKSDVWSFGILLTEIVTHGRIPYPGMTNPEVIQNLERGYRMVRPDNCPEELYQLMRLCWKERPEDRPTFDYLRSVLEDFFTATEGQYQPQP
Summary of the method: as §1

PDGFRB = molecular target: T15, PDGFRB (Homo sapiens, UniProt P09619); assay: Kinase inhibition assay (33P transfer), PDGFRB; details: read-out: PDGFRB-1
T15 construct: Kinases are expressed as either kinase domains or full length constructs; made in house
T15 sequence (P09619 33-1106, species assumed): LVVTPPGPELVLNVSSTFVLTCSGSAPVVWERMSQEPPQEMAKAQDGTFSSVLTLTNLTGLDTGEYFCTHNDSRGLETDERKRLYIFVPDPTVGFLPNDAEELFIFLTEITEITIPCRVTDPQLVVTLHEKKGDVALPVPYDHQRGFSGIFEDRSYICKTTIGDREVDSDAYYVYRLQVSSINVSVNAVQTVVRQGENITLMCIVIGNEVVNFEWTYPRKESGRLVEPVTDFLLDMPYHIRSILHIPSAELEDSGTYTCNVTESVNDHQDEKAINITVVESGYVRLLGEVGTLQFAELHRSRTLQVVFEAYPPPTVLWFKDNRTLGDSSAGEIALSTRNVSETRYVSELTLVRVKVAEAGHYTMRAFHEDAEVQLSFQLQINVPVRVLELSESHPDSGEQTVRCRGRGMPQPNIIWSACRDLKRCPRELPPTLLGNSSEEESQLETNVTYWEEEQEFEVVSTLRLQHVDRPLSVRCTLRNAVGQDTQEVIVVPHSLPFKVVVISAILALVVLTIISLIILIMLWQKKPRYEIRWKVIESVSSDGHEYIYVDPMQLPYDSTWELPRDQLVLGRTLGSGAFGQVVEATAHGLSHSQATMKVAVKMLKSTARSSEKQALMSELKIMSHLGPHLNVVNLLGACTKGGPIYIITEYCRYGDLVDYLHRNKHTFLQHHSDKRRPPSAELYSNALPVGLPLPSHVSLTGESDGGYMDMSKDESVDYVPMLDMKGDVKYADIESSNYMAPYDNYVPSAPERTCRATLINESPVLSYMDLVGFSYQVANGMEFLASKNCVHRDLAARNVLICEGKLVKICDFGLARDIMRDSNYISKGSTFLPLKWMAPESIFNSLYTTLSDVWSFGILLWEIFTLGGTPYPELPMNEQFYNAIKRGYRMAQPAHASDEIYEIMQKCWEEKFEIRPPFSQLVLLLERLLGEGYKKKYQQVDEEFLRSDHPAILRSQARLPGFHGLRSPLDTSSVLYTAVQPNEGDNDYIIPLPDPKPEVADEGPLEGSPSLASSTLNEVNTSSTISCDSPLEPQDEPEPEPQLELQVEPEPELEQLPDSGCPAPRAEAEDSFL

Kdr = molecular target: T16, Kdr (Homo sapiens, UniProt P35968); assay: Kinase inhibition assay (33P transfer), Kdr; details: read-out: KDR-1
T16 construct: Kinases are expressed as either kinase domains or full length constructs; made in house
Summary of the method: as §1

EGFR = molecular target: T17, EGFR (Homo sapiens, UniProt P00533); assay: Kinase inhibition assay (33P transfer), EGFR; details: read-out: EGFR-1
T17 construct: Kinases are expressed as either kinase domains or full length constructs; made in house
T17 sequence (P00533 25-1210, species assumed): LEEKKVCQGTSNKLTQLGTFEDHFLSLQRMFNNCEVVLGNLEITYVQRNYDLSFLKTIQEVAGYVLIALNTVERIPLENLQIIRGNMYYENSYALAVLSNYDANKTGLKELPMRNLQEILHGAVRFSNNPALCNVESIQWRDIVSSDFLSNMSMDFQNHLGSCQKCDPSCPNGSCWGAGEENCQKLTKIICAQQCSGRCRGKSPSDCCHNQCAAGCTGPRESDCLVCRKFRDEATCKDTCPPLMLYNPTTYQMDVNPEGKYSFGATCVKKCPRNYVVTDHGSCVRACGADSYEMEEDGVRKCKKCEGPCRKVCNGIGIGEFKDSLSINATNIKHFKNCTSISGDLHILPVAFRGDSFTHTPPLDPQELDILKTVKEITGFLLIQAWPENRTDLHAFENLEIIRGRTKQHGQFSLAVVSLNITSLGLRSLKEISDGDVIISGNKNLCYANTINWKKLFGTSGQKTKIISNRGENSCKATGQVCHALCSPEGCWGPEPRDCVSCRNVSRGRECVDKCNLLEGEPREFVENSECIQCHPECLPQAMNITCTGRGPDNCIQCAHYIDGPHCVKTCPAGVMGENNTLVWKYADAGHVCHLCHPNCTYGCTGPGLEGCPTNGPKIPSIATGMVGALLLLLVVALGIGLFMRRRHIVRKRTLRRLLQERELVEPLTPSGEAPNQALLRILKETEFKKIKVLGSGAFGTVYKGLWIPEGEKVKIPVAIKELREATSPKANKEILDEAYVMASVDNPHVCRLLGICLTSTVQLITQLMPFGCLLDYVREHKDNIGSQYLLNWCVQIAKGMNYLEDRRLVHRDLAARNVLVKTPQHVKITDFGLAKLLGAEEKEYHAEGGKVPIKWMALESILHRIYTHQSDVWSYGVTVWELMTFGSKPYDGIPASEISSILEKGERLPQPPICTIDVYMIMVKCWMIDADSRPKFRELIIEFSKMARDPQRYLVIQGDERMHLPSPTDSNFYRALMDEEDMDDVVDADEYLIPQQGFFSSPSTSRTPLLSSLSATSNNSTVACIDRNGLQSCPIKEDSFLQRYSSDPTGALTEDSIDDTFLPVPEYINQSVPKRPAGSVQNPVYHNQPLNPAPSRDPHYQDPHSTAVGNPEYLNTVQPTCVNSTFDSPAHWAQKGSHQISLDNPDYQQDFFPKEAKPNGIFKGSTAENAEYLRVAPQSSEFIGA
Summary of the method: as §2

IGFR-1 [2] = molecular target: T3, IGFR-1; assay: Kinase inhibition assay (33P transfer), IGFR-1; details: Table 2, class symbols A-E
[3] = Table 2, kinase inhibition class

SMILES	pIC50 (ErbB2)	pIC50 (PDGFRB)	pIC50 (Zap-70; Table 3, class symbols)	pIC50 (EGFR; Table 2, class symbols A-E)	pIC50 (IGFR-1 [2])	pIC50 (AKT; Table 2, class symbols A-E)	pIC50 (c-Met; Table 2, class symbols A-E)	pIC50 (Itk; Table 3, class symbols)	pIC50 (Lck; Table 3, class symbols)	pIC50 (Kdr; Table 3, class symbols)	further results
COc1cc(Nc2ncnc(-n3c(NC4c5ccccc5CC4O)nc4ccccc43)n2)cc(OC)c1OC (centres unmarked) [Compound 579]	5.18 to 5.34 and > 6.12	< 5.07									pIC50 (Zap-70): < 5.07; pIC50 (ErbB4): > 6.12; pIC50 (IGFR-1 [1]): < 5.07; pIC50 (Lyn): 5.18 to 5.34; pIC50 (FGFR1): 5.34 to 6.12; pIC50 (Ret-1): > 6.12; pIC50 (AKT; [3]): < 5.07; pIC50 (c-Met; [3]): < 5.07; pIC50 (Src): < 5.07; pIC50 (Fyn): < 5.07; pIC50 (Flt-1): 5.34 to 6.12; pIC50 (Itk): < 5.07; pIC50 (Lck): 5.34 to 6.12; pIC50 (Kdr): 5.34 to 6.12 and > 6.12
COc1cc(Nc2ncnc(-c3cccnc3NCc3ccccc3OC(F)(F)F)n2)cc(OC)c1OC [Compound 842]	5.07 to 5.18	5.18 to 5.34	5.07 to 5.18	< 5.07	< 5.07	< 5.07	5.07 to 5.18	< 5.07	< 5.07	5.34 to 6.12	
COc1cc(Nc2ncnc(-c3cccnc3Nc3cc(Cl)cc(Cl)c3)n2)cc(OC)c1OC [Compound 837]	< 5.05	< 5.05	< 5.05	< 5.05	< 5.05	< 5.05	< 5.05	< 5.05	< 5.05	< 5.05	
CN(c1ccc2c(cnn2Cc2ccccc2)c1)c1ncnc(Nc2cccc(Br)c2)n1 [Compound 667]	5.31 to 6.08	< 5.03	< 5.03	> 6.08	< 5.03	< 5.03	5.03 to 5.14	< 5.03	< 5.03	< 5.03	
COc1ccc(Nc2ncnc(N(C)c3ccc(C)cc3)n2)cc1OC [Compound 799]	5.17 to 5.94	5.17 to 5.94	< 4.89	> 5.94	5.17 to 5.94	< 4.89	5.17 to 5.94	< 4.89	5.17 to 5.94	5.17 to 5.94	

Continued, in another order:

pIC50 (ErbB2)	pIC50 (PDGFRB)	pIC50 (Zap-70; Table 3, class symbols)	pIC50 (EGFR; Table 2, class symbols A-E)	pIC50 (IGFR-1 [2])	pIC50 (AKT; Table 2, class symbols A-E)	pIC50 (c-Met; Table 2, class symbols A-E)	pIC50 (Itk; Table 3, class symbols)	pIC50 (Lck; Table 3, class symbols)	pIC50 (Kdr; Table 3, class symbols)	SMILES	further results
5.20 to 5.36	5.36 to 6.14									CCOC(=O)C(Nc1nc2ccccc2n1-c1ncnc(Nc2cc(OC)c(OC)c(OC)c2)n1)c1ccccc1 (centres unmarked) [Compound 585]	pIC50 (Zap-70): < 5.09; pIC50 (ErbB4): < 5.09; pIC50 (IGFR-1 [1]): < 5.09; pIC50 (Lyn): < 5.09; pIC50 (EGFR; [3]): < 5.09; pIC50 (FGFR1): > 6.14; pIC50 (Ret-1): > 6.14; pIC50 (AKT; [3]): < 5.09; pIC50 (c-Met; [3]): 5.09 to 5.20; pIC50 (Src): < 5.09; pIC50 (Fyn): < 5.09; pIC50 (Flt-1): 5.36 to 6.14; pIC50 (Itk): < 5.09; pIC50 (Lck): 5.20 to 5.36; pIC50 (Kdr): > 6.14
5.10 to 5.27	5.27 to 6.04	4.99 to 5.10	> 6.04	< 4.99	< 4.99	5.27 to 6.04	< 4.99	5.10 to 5.27	5.10 to 5.27	CN(c1cccc(Cl)c1)c1ncnc(Nc2ccc3nn(Cc4ccccc4)cc3c2)n1 [Compound 673]	
